According to patent US11028127B2, “Peptides capable of reactivating p53 mutants” (Yeda Research and Development Co. Ltd., priority 2013, dated 2021):

How the values were obtained:
[1] = biological target: T1, R249S p53 (Homo sapiens, UniProt P04637, R249S); assay: TK-RGC-luc luciferase reporter assay in H1299 p53−/− cells; format: cell-based; conditions: peptides added 24 hours after transfection, read at 48 hours
T1 construct: expressed in transfected cells; host or cells: H1299 p53-/- cells, transient transfection
Method: (§1) FIG. 12 is a bar graph illustrating the relative luciferase activity (cLuc/gLuc) as measured in the various tested samples. Transient transfection of H1299 p53^−/− cells was performed with plasmids expressing WT p53, R175H p53, R249S p53 or empty vector as control, together with TK-RGC-luc, where luciferase expression is under control of a tandem array of multiple p53-responsive elements. 24 hours after transfection, cells were treated with the test peptides. 48 hours after transfection, a sample of the culture medium was taken for bioluminescence measurements.
(§2) The oligonucleotide (RGC-W) that has the sequence 5′-[…]-3′ (SEQ ID NO:362), and the oligonucleotide mutant RGC oligonucleotide (RGC-M) that has the sequence 5′-[…]-3′ (SEQ ID NO:363), are both derived from Kern et al. (Kern, S. E., et al., Identification of p53 as a sequence-specific DNA-binding protein. Science, 1991. 252(5013): p. 1708-11), and serve as a consensus binding sites for WT p53.
(§3) These motifs were cloned into the KPN and Eco53IK sites in pCLuc Mini-TK 2 Vector (NEB, Cat No. N0324S ). The Luciferase construct was used to assess transcriptional activation of p53 in test cells.
(§4) H1299 p53-null cells were cultured overnight and then transfected with the luciferase constructs using MaxFect Transfection Agent (Mediatech) according to the manufacturer's protocol. Prior to the transfection, cell medium was exchanged to OPTI-MEM.
(§5) The cells were treated with different peptides 24 hours after transfection. After additional 24 hours, growth medium was collected to 96 black plates: 40 μl for Cluc assay, and 20 μl for Gluc assay. Assay was performed using Turner BioSystems Modulus Microplate. Value was calculated by Cluc/gluc/NT (non-treated cells).
(§6) As additional screening strategy used to identify reactivating peptides was performed in vivo and is based on a reporter gene assay. It measures p53 transcriptional activity by quantifying the activity of a reporter gene, placed under the control of a promoter containing 17 repeats of a p53 consensus binding site (RGC). The luciferase assay is performed on living cells and therefore provides an indication on the effect of test peptides on Mut-p53 function in the context of intact cells.
(§7) For the in vivo luciferase based screening, H1299 cells were used. Transient transfection of these p53^−/− cells was performed with vectors expressing WT p53, R175H p53, R249S p53 or empty vector as control (Suad, O., et al., Structural basis of restoring sequence-specific DNA binding and transactivation to mutant p53 by suppressor mutations. J. Mol. Biol., 2009. 385(1): p. 249-65). Cells were also co-transfected with TK-RGC-luc (CAT. No. NEB, N0324S). 24 hours after transfection, cells were treated with the test peptides. […]

[2] = biological target: T2, R175H p53 (Homo sapiens, UniProt P04637, R175H); assay: as above; format: cell-based; conditions: peptides added 24 hours after transfection, read at 48 hours
T2 construct: a hot spot full length mutant p53 Mut-p53 R175H (R175H p53); expressed in transfected cells; host or cells: H1299 p53-/- cells, transient transfection
Method: as §1, §2, §3, §4, §5, §6, §7

[3] = biological target: T3, Mut-p53 (R175H p53) (Homo sapiens, UniProt P04637, R175H); assay: p53/DNA binding ELISA kit (R&D), binding to p53-RE DNA; format: biochemical; conditions: H1299-R175H p53 cell extracts, vs background (NT)
T3 construct: a hot spot full length mutant p53 Mut-p53 R175H (R175H p53); expressed in transfected cells; host or cells: H1299 (p53-null) cells stably overexpressing R175H p53; cell extract
Excerpt: A commercial p53/DNA binding kit (R&D) was used, according to manufacturer instructions. Briefly, 96 well plates were coated with anti-p53 antibody overnight. Cell extracts containing p53 were reacted with an oligonucleotide that contains a p53 consensus binding site, labeled with biotin, in the presence or absence (NT) of test peptides. WT p53 is expected to bind this DNA binding site as well as to the antibody coating the test wells of the plate. Excess p53 and oligos are washed away and streptavidin-HRP is used to quantify the amount of oligos in the well, which is proportional to the DNA bound by p53. TMB assay was performed to determine HRP levels (450 nm). The results are presented as relative absorbance (at 450 nm) (Y-Axis) of each tested sample. MCF7 and the H1299-Mut-p53 (ts) A135V cells serve as positive controls for WT p53.
For these experiments, a commercial p53/DNA binding kit of “R&D” (Cat-DYC1355-5 Lot-1273366FA) was used, in accordance with manufacturer guide lines. Briefly, 96 well plates are coated with anti-p53 antibody overnight. Cell extracts containing p53 are reacted with an oligonucleotide that contains a p53 consensus binding site (provided in the kit), labeled with biotin, in the presence or absenc.
e (NT) of test peptides. WT p53 is expected to bind this DNA binding site as well as to the antibody coating the test wells of the plate. Excess p53 and oligos were washed away and streptavidin-HRP was used to quantify the amount of oligos in the well, which is proportional to the DNA bound by p53. TMB assay was performed to determine HRP (ES001-1L-K) levels (450 nm).
To measure the effect of the tested peptides on DNA binding of Mut-p53, a commercial ELISA kit, (R&D Systems DYC1355-5, Lot-1273366FA), was used as a high-throughput assay to quantify p53 activation. This kit uses a 96-well plate format. The kit was used according to manufacturer's instructions. Wells were coated with anti-p53 antibody overnight. Cell extracts containing p53 were reacted with a biotin labeled oligonucleotide containing a p53 consensus binding site (included in the kit). WT p53 is expected to bind this oligo as well as the antibody coating the wells. Excess p53 and oligo were washed away in wash buffer (0.05% Tween 20 in PBS, pH 7.2-7.4; R&D Systems, Catalog #WA126). Then, streptavidin-HRP (R&D Systems, Part 890803, provided in the kit) was added for 15-45 min to quantify the amount of oligo in the well, which is proportional to the DNA bound by p53. If the addition of a peptide to Mut-p53 extracts increases ELISA reading compared to background, this peptide is considered as functionally effective and may be selected for further analysis. […] As with the conformational screening, MCF7 and the H1299-Mut-p53 (ts) A135V cells served as positive controls for WT p53. Extracts were added to the wells coated with αp53-Ab, and after several washing steps, streptavidin-HRP was added for 1 hour, and then plates were washed again and TMB (substrate to HRP) assay was performed.

## YRRLLIGMMWRRRRRRRRRRR [pCAP-68]
[1]
  transcription from TK-RGC-luc in the presence of R249S p53: induce transcription from TK-RGC-luc
[2]
  transcription from TK-RGC-luc in the presence of R175H p53: induce transcription from TK-RGC-luc
[3]
  binding of H1299-R175H p53 extracts to p53-RE DNA: elevate the binding of H1299-R175H p53 extracts to p53-RE DNA
